Results on 22 compounds are retold here after patent publication US20250368635A1, “HETEROARYL DERIVATIVE COMPOUND, AND USES THEREOF” (VORONOI, INC., priority 2022, published 2025).

For assay [1], the system named is Ba/F3 cells expressing EGFR L858R/C797S (EGFR LC). As to the kind of experiment: Inhibition of proliferation of Ba/F3 cells expressing EGFR L858R/C797S (CellTiter-Glo, 72 h). In kind it is cell-based. To be noted: Mus musculus, BaF3, 72 hours treatment. How it is done:
(§1) The following experiment was performed to evaluate the inhibitory activity of the compounds according to the present invention on the proliferation of Ba/F3 cells expressing EGFR Del19/C797S (EGFR DC) and EGFR L858R/C797S (EGFR LC) mutations.
(§2) Ba/F3 cells were cultured using medium (RPMI-1640) containing 10% fetal bovine serum (FBS) and 5 ng/ml IL-3 (R&D Systems). The transduced Ba/F3 cells were cultured by adding 1 μg/ml puromycin (Invitrogen) to the same medium.
(§3) 24 hours prior to treatment with compounds, 3,000 to 5,000 cells were seeded on a well plate (white clear bottom 96 well plate, Corning). The compounds were diluted in dimethyl sulfoxide (3-fold dilution, total of 12 concentrations) and injected at 1 μl each so that the final concentration was 0.2 nM to 5 μM. After 72 hours post treatment with compounds, living cells were stored at room temperature for 10 minutes using CellTiter-Glo luminescent cell-viability reagent (Promega), and the luminescence intensity thereof was measured using a reader (Synergy Neo, Biotek). Each test was repeated three times. The result values were calculated as a cell growth rate (%) compared to the control group. A graph was created using the GraphPad Prism version 8.3.0 program, and GI50 values were calculated.
For orientation: Cellular ATP, detected with luciferase, serves as a proxy for viable cell number.

Assay [2] relates to Ba/F3 cells expressing EGFR Del19/C797S (EGFR DC). As to the kind of experiment: Inhibition of proliferation of Ba/F3 cells expressing EGFR Del19/C797S (CellTiter-Glo, 72 h). In kind it is cell-based. To be noted: Mus musculus, BaF3, 72 hours treatment. The method, then: as §1, §2, §3

The GI50 is the concentration that inhibits growth by half. With `COc1cc(N2CCC3(CC2)CCN(C(C)(C)CF)CC3)c(-c2cn(C)nc2F)cc1Nc1cc(N2OCC[C@@H]2c2cccc(F)c2F)ncn1` [Example 1, (R)-6-(3-(2,3-difluorophenyl)isoxazolidin-2-yl)-N-(5-(3-fluoro-1-methyl-1H-pyrazol-4-yl)-4-(9-(1-fluoro-2-methylpropan-2-yl)-3,9-diazaspiro[5.5]undecan-3-yl)-2-methoxyphenyl)pyrimidin-4-amine], the GI50 in assay [1] and in assay [2] was under 100 nM each time. As to `COc1cc(N2CCN(C)CC2)c(-c2ccoc2)cc1Nc1cc(N2OCC[C@@H]2c2cccc(F)c2F)ncn1` [Example 75, (R)-6-(3-(2,3-difluorophenyl)isoxazolidin-2-yl)-N-(5-(furan-3-yl)-2-methoxy-4-(4-methylpiperazin-1-yl)phenyl)pyrimidin-4-amine], in assay [2], the GI50 fell in the range of 100 to 1000 nM. With `COc1cc(N2CCN(C)CC2)c(-c2ccsc2)cc1Nc1cc(N2OCC[C@@H]2c2cccc(F)c2F)ncn1` [Example 76, (R)-6-(3-(2,3-difluorophenyl)isoxazolidin-2-yl)-N-(2-methoxy-4-(4-methylpiperazin-1-yl)-5-(thiophen-3-yl)phenyl)pyrimidin-4-amine], in assay [2], the GI50 lay within 100 to 1000 nM. Consider `COc1cc(N2CCN(C)CC2)c(-c2cnc3ccccc3c2)cc1Nc1cc(N2OCC[C@@H]2c2cccc(F)c2F)ncn1` [Example 78, (R)-6-(3-(2,3-difluorophenyl)isoxazolidin-2-yl)-N-(2-methoxy-4-(4-methylpiperazin-1-yl)-5-(quinolin-3-yl)phenyl)pyrimidin-4-amine], for which the GI50 in assay [2] lay within 100 to 1000 nM.

On to `COc1cc(N2CCN(C)CC2)c(-c2ccncc2)cc1Nc1cc(N2OCC[C@@H]2c2cccc(F)c2F)ncn1` [Example 79, (R)-6-(3-(2,3-difluorophenyl)isoxazolidin-2-yl)-N-(2-methoxy-4-(4-methylpiperazin-1-yl)-5-(pyridin-4-yl)phenyl)pyrimidin-4-amine], for which the GI50 in assay [2] lay in the range of 100 to 1000 nM. `COc1cc(N2CCC3(CC2)CN(C)CCO3)c(-c2cnn(C)c2)cc1Nc1cc(N2OCC[C@@H]2c2cccc(F)c2F)ncn1` [Example 83, (R)-6-(3-(2,3-difluorophenyl)isoxazolidin-2-yl)-N-(2-methoxy-5-(1-methyl-1H-pyrazol-4-yl)-4-(4-methyl-1-oxa-4,9-diazaspiro[5.5]undecan-9-yl)phenyl)pyrimidin-4-amine]: the GI50 in assay [2] was in the range of 100 to 1000 nM. On to `COc1cc(N2CCSCC2)c(-c2cnn(C)c2)cc1Nc1cc(N2OCC[C@@H]2c2cccc(F)c2F)ncn1` [Example 85, (R)-6-(3-(2,3-difluorophenyl)isoxazolidin-2-yl)-N-(2-methoxy-5-(1-methyl-1H-pyrazol-4-yl)-4-thiomorpholinophenyl)pyri-midin-4-amine], for which the GI50 in assay [2] was in the range of 100 to 1000 nM. Consider `Cn1cc(-c2cc(Nc3cc(N4OCC[C@@H]4c4cccc(F)c4F)ncn3)c3c(c2N2CCOCC2)OCCO3)cn1` [Example 96, (R)-6-(3-(2,3-difluorophenyl)isoxazolidin-2-yl)-N-(7-(1-methyl-1H-pyrazol-4-yl)-8-morpholino-2,3-dihydrobenzo[b][1,4]dioxin-5-yl)pyrimidin-4-amine], for which the GI50 in assay [2] was in the range of 100 to 1000 nM. Regarding `COc1cc(N2CCN(C)CC2)c(-c2cnn(C)c2)cc1Nc1cc(N2OCC[C@@H]2c2cccc(F)c2F)ncn1` [Example 98, (R)-6-(3-(2,3-difluorophenyl)isoxazolidin-2-yl)-N-(2-methoxy-5-(1-methyl-N-pyrazol-4-yl)-4-(4-methylpiperazin-1-yl)phenyl)pyrimidin-4-amine], the GI50 in assay [2] is under 100 nM. As for `COc1cc(N2CCN(C)CC2)c(-c2cnn(C3CC3)c2)cc1Nc1cc(N2OCC[C@@H]2c2cccc(F)c2F)ncn1` [Example 99, (R)-N-(5-(1-cyclopropyl-1H-pyrazol-4-yl)-2-methoxy-4-(4-methylpiperazin-1-yl)phenyl)-6-(3-(2,3-difluorophenyl)isoxazolidin-2-yl)pyrimidin-4-amine], the GI50 in assay [2] was under 100 nM.

`COc1cc(N2CCC(N3CC(OC)C3)CC2)c(-c2cnn(C)c2)cc1Nc1cc(N2OCC[C@@H]2c2cccc(F)c2F)ncn1` [Example 102, (R)-6-(3-(2,3-difluorophenyl)isoxazolidin-2-yl)-N-(2-methoxy-4-(4-(3-methoxyazetidin-1-yl)piperidin-1-yl)-5-(1-methyl-1H-pyrazol-4-yl)phenyl)pyrimidin-4-amine]: the GI50 in assay [2] is under 100 nM. `COc1cc(N2CCC3(CC2)CCN(C(C)(C)CF)CC3)c(-c2cn(C)nc2F)cc1Nc1cc(N2OCC[C@@H]2c2ccccc2)ncn1` [Example 103, (R)-N-(5-(3-fluoro-1-methyl-1H-pyrazol-4-yl)-4-(9-(1-fluoro-2-methylpropan-2-yl)-3,9-diazaspiro[5.5]undecan-3-yl)-2-methoxyphenyl)-6-(3-phenylisoxazolidin-2-yl)pyrimidin-4-amine]: in assay [2], the GI50 is under 100 nM. The same measure, in the same setting: the same measure for `CCOc1cc(N2C[C@@H](C)O[C@@H](C)C2)c(-c2cnn(C)c2)cc1Nc1cc(N2OCC[C@@H]2c2cccc(F)c2F)ncn1` [Example 104, 6-((R)-3-(2,3-difluorophenyl)isoxazolidin-2-yl)-N-(4-((25,6R)-2,6-dimethylmorpholino)-2-ethoxy-5-(1-methyl-1H-pyrazol-4-yl)phenyl)pyrimidin-4-amine]: 100 to 1000 nM. Same read-out and setting: the same measure for `CC(C)Oc1cc(N2C[C@H](C)O[C@@H](C)C2)c(-c2cnn(C)c2)cc1Nc1cc(N2OCC[C@@H]2c2cccc(F)c2F)ncn1` [Example 105, 6-((R)-3-(2,3-difluorophenyl)isoxazolidin-2-yl)-N--(4-((2S,6S)-2,6-dimethylmorpholino)-2-isopropoxy-5-(1-methyl-1H-pyrazol-4-yl)phenyl)pyrimidin-4-amine]: 100 to 1000 nM. Regarding `COc1cc(N2C[C@H](C)O[C@@H](C)C2)c(-c2cnn(C)c2)cc1Nc1cc(N2OCC[C@@H]2c2cccc(F)c2F)ncn1` [Example 106, 6-((R)-3-(2,3-difluorophenyl)isoxazolidin-2-yl)-N-(4-((2S,6S)-2,6-dimethylmorpholino)-2-methoxy-5-(1-methyl-1H-pyrazol-4-yl)phenyl)pyrimidin-4-amine], the GI50 in assay [2] lay within 100 to 1000 nM. In the case of `COc1cc(N2C[C@@H](C)O[C@@H](C)C2)c(-c2cnn(C)c2)cc1Nc1cc(N2OCC[C@@H]2c2cccc(F)c2F)ncn1` [Example 107, 6-((R)-3-(2,3-difluorophenyl)isoxazolidin-2-yl)-N-(4-((2S,6R)-2,6-dimethylmorpholino)-2-methoxy-5-(1-methyl-1H-pyrazol-4-yl)phenyl)pyrimidin-4-amine], the GI50 in assay [2] was 100 to 1000 nM. As for `COc1cc(N2CCO[C@H](C)C2)c(-c2cnn(C)c2)cc1Nc1cc(N2OCC[C@@H]2c2cccc(F)c2F)ncn1` [Example 108, 6-((R)-3-(2,3-difluorophenyl)isoxazolidin-2-yl)-N-(2-methoxy-5-(1-methyl-1H-pyrazol-4-yl)-4-((R)-2-methylmorpholino)phenyl)py-rimidin-4-amine], in assay [2], the 50% growth inhibitory concentration (GI50) lay within 100 to 1000 nM. Same read-out and setting: the same measure for `COc1cc(N2CCC(C)(OC)CC2)c(-c2cnn(C)c2)cc1Nc1cc(N2OCC[C@@H]2c2cccc(F)c2F)ncn1` [Example 109, (R)-6-(3-(2,3-difluorophenyl)isoxazolidin-2-yl)-N-(2-methoxy-4-(4-methoxy-4-methylpiperidin-1-yl)-5-(1-methyl-1H-pyrazol-4-yl)phenyl)pyrimidin-4-amine]: under 100 nM; for `COc1cc(N2CCC(CN(C)C(C)(C)CF)CC2)c(-c2cnn(C)c2)cc1Nc1cc(N2OCC[C@@H]2c2cccc(F)c2F)ncn1` [Example 110, (R)-6-(3-(2,3-difluorophenyl)isoxazolidin-2-yl)-N-(4-(4-(((1-fluoro-2-methylpropan-2-yl)(methyl)amino)methyl)pi-peridin-1-yl)-2-methoxy-5-(1-methyl-1H-pyrazol-4-yl)phenyl)pyrimidin-4-amine]: 100 to 1000 nM.

Regarding `COc1cc(N2CC3(CCOCC3)C2)c(-c2cnn(C)c2)cc1Nc1cc(N2OCC[C@@H]2c2cccc(F)c2F)ncn1` [Example 111, (R)-6-(3-(2,3-difluorophenyl)isoxazolidin-2-yl)-N-(2-methoxy-5-(1-methyl-1H-pyrazol-4-yl)-4-(7-oxa-2-azaspiro[3.5]nonan-2-yl)phenyl)pyrimidin-4-amine], in assay [2], the 50% growth inhibitory concentration (GI50) lay in the range of 100 to 1000 nM. Regarding `CN1CCN(C2CCN(c3c(-c4cnn(C)c4)cc(Nc4cc(N5OCC[C@@H]5c5cccc(F)c5F)ncn4)c4c3CCO4)CC2)CC1` [Example 112, (R)-6-(3-(2,3-difluorophenyl)isoxazolidin-2-yl)-N-(5-(1-methyl-1H-pyrazol-4-yl)-4-(4-(4-methylpiperazin-1-yl)piperidin-1-yl)-2,3-dihydrobenzofuran-7-yl)pyrimidin-4-amine], in assay [2], the GI50 was in the range of 100 to 1000 nM. Turning to `CN1CCN(c2c(-c3cnn(C)c3)cc(Nc3cc(N4OCC[C@@H]4c4cccc(F)c4F)ncn3)c3c2OCO3)CC1` [Example 113, (R)-6-(3-(2,3-difluorophenyl)isoxazolidin-2-yl)-N-(6-(1-methyl-1H-pyrazol-4-yl)-7-(4-methylpiperazin-1-yl)benzo[d][1,3]dioxol-4-yl)pyrimidin-4-amine], the 50% growth inhibitory concentration (GI50) in assay [2] is under 100 nM.
